System: 186277-243-T-J2-PDC complex spheroid growth, % test/control
Assay: Anticancer human tumor 186277-243-T-J2-PDC patient-derived colon adenocarcinoma cell line growth inhibition [Asc]
Conditions: for IC50: curve of first compound; for viability, T/C: stronger effect = lower value
How it was run: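 Tumor cells were grown as complex spheroids with human endothelial cells (HUVEC) and human mesenchymal stem cells as stroma. Agents were tested alone and in combination, in half-log steps down from the clinical Cmax, or from 10 microM where Cmax was unknown.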
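Also: spheroids exposed to agents for 7 days.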
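For viability, T/C in this document: 100% = DMSO vehicle control wells.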

SMILES: NC(=O)C(=Cn1cnc(-c2cc(C(F)(F)F)cc(C(F)(F)F)c2)n1)c1cncnc1 + Cc1c(S(C)(=O)=O)c(-c2cc(F)cc(N3CCN(c4ccc(NS(=O)(=O)c5ccc(NC(CCN6CCC(C(=O)OCCCP(=O)(O)O)CC6)CSc6ccccc6)c(S(=O)(=O)C(F)(F)F)c5)cc4)CC3)c2)c(-c2ccc(Cl)cc2)n1C(C)C
- IC50 (second compound 0.1 µM): 108 nM
- IC50 (second compound 0.316 µM): 84.2 nM
- IC50 (second compound 1 µM): 65.7 nM
- IC50 (second compound 3.16 µM): 56.8 nM
- IC50 (second compound 10 µM): 55.4 nM
- viability, T/C (second compound 0.1 µM, first compound 0.000949 µM): 109%
- viability, T/C (second compound 0.1 µM, first compound 0.003 µM): 99.3%
- viability, T/C (second compound 0.1 µM, first compound 0.00949 µM): 113%
- viability, T/C (second compound 0.1 µM, first compound 0.03 µM): 90.8%
- viability, T/C (second compound 0.1 µM, first compound 0.0949 µM): 56.2%
- viability, T/C (second compound 0.1 µM, first compound 0.3 µM): 6.16%
- viability, T/C (second compound 0.316 µM, first compound 0.000949 µM): 96.3%
- viability, T/C (second compound 0.316 µM, first compound 0.003 µM): 99%
- viability, T/C (second compound 0.316 µM, first compound 0.00949 µM): 89.5%
- viability, T/C (second compound 0.316 µM, first compound 0.03 µM): 94.9%
- viability, T/C (second compound 0.316 µM, first compound 0.0949 µM): 44.8%
- viability, T/C (second compound 0.316 µM, first compound 0.3 µM): 4.07%
- viability, T/C (second compound 1 µM, first compound 0.000949 µM): 96.8%
- viability, T/C (second compound 1 µM, first compound 0.003 µM): 101%
- viability, T/C (second compound 1 µM, first compound 0.00949 µM): 101%
- viability, T/C (second compound 1 µM, first compound 0.03 µM): 98.2%
- viability, T/C (second compound 1 µM, first compound 0.0949 µM): 27.4%
- viability, T/C (second compound 1 µM, first compound 0.3 µM): 1.75%
- viability, T/C (second compound 3.16 µM, first compound 0.000949 µM): 110%
- viability, T/C (second compound 3.16 µM, first compound 0.003 µM): 99.4%
- viability, T/C (second compound 3.16 µM, first compound 0.00949 µM): 101%
- viability, T/C (second compound 3.16 µM, first compound 0.03 µM): 95.8%
- viability, T/C (second compound 3.16 µM, first compound 0.0949 µM): 13.2%
- viability, T/C (second compound 3.16 µM, first compound 0.3 µM): 0.68%
- viability, T/C (second compound 10 µM, first compound 0.000949 µM): 92%
- viability, T/C (second compound 10 µM, first compound 0.003 µM): 92.4%
- viability, T/C (second compound 10 µM, first compound 0.00949 µM): 92.5%
- viability, T/C (second compound 10 µM, first compound 0.03 µM): 91.7%
- viability, T/C (second compound 10 µM, first compound 0.0949 µM): 13.4%
- viability, T/C (second compound 10 µM, first compound 0.3 µM): 0.55%
